Data as given in US20230142338A1, “THIOPHENYL DERIVATIVES USEFUL FOR MODULATING NUCLEIC ACID SPLICING” (REMIX THERAPEUTICS INC., priority 2020, published 2023).
Structures can show the parent of a compound that is named as a salt.

Legend:
Format in all cases: cell-based
HTT AJ mRNA = test: Splicing assay (RT-qPCR): increase in HTT alternative junction (AJ) mRNA; settings: A673 or K562 cells, 24 hours treatment; concentration having 50% response in AJ mRNA increase
Experimental: (§1) Compounds described herein were used to modulate RNA transcript abundance in cells. The expression of a target mRNA was measured by detecting the formation of an exon-exon junction in the canonical transcript (CJ). A compound mediated exon-inclusion event was detected by observing an increase in formation of a new junction with an alternative exon (AJ). Real-time qPCR assays were used to detect these splicing switches and interrogate the potency of various compounds towards different target genes. A high-throughput real time quantitative PCR (RT-qPCR) assay was developed to measure these two isoforms of the mRNA (CJ and AJ) for an exemplary gene, HTT, together with a control housekeeping gene, GAPDH or GUSB or PPIA, used for normalization. Briefly, the A673 or K562 cell line was treated with various compounds described herein (e.g., compounds of Formula (I)). After treatment, the levels of the HTT mRNA targets were determined from each sample of cell lysate by cDNA synthesis followed by qPCR.
(§2) The A673 cell line was cultured in DMEM with 10% FBS. Cells were diluted with full growth media and plated in a 96-well plate (15,000 cells in 100 ul media per well). The plate was incubated at 37° C. with 5% CO2 for 24 hours to allow cells to adhere. An 11-point 3-fold serial dilution of the compounds was made in DMSO then diluted in media in an intermediate plate. Compounds were transferred from the intermediate plate to the cell plate with the top dose at a final concentration of 10 uM in the well. Final DMSO concentration was kept at or below 0.25%. The cell plate was returned to the incubator at 37° C. with 5% CO2 for an additional 24 hours.
(§3) The K562 cell line was cultured in IMDM with 10% FBS. For K562, cells were diluted with full growth media and plated in either a 96-well plate (50,000 cells in 50 uL media per well) or a 384-well plate (8,000-40,000 cells in 45 uL media per well). An 11-point 3-fold serial dilution of the compounds were made in DMSO then diluted in media in an intermediate plate. Compound was transferred from the intermediate plate to the cell plate with the top dose at a final concentration of 10 uM in the well. Final DMSO concentration was kept at or below 0.25%. Final volume was 100 uL for 96-well plate and 50 uL for 384-well plate. The cell plate was then placed in an incubator at 37° C. with 5% CO2 for 24 hours.
(§4) The cells were then gently washed with 50 uL-100 uL cold PBS before proceeding to addition of lysis buffer. 30 uL-50 uL of room temperature lysis buffer with DNAse I (and optionally RNAsin) was added to each well. Cells were shaken/mixed thoroughly at room temperature for 5-10 minutes for lysis to take place and then 3 uL-5 uL of room temperature stop solution was added and wells were shaken/mixed again. After 2-5 minutes, the cell lysate plate was transferred to ice for RT-qPCR reaction setup. The lysates could also be frozen at −80° C. for later use.
(§5) In some cases, a direct lysis buffer was used. An appropriate volume of 3× lysis buffer (10 mM Tris, 150 mM NaCl, 1.5%-2.5% Igepal and 0.1-1 U/uL RNAsin, pH 7.4) was directly added to either K562 or A673 cells in media and mixed by pipetting 3 times. The plates were then incubated at room temperature with shaking/rocking for 20-50 minutes to allow for lysis to take place. After this time, the cell lysate plate was transferred to ice to set up for the RT-qPCR reactions. The lysates could also be frozen at −80° C. for later use.
(§6) To set up 10 uL RT-qPCR reactions, cell lysates were transferred to 384-well qPCR plates containing the master mix according to the table below. The plates were sealed, gently vortexed, and spun down before the run. The volumes were adjusted accordingly in some instances where the reaction was carried in 20 uL. The table below summarizes the components of the RT-qPCR reactions:
(§7) The RT-qPCR reaction was performed using a QuantStudio (ThermoFisher) under the following fast cycling conditions. […]

HTT CJ mRNA [1] = test: Splicing assay (RT-qPCR): decrease in HTT canonical junction (CJ) mRNA; settings: A673 or K562 cells, 24 hours treatment; concentration having 50% response in CJ mRNA decrease
Experimental: as §1, §2, §3, §4, §5, §6, §7

HTT CJ mRNA [2] = test: Gene panel canonical junction qPCR assay: HTT; settings: Table 3, concentration having 50% response in CJ decrease, read-out: HTT IC50 (decrease in CJ mRNA levels)
Experimental: as §1, §2, §3, §4, §5, §6, §7

SMN2 CJ mRNA = test: Gene panel canonical junction qPCR assay: SMN2; settings: Table 3, concentration having 50% response in CJ decrease, read-out: SMN2 IC50 (decrease in CJ mRNA levels)
Experimental: as §1, §2, §3, §4, §5, §6, §7

Target C CJ mRNA = test: Gene panel canonical junction qPCR assay: Target C; settings: Table 3, concentration having 50% response in CJ decrease, read-out: Target C IC50 (decrease in CJ mRNA levels)
Experimental: as §1, §2, §3, §4, §5, §6, §7

IC50 (HTT CJ mRNA [2]) | IC50 (SMN2 CJ mRNA) | IC50 (Target C CJ mRNA) | Structure (SMILES) | AC50 (HTT AJ mRNA) | AC50 (HTT CJ mRNA [1])
1000 to 10000 nM | 100 to 1000 nM | 100 to 1000 nM | Cc1nc2c(F)cc(NC(=O)c3sc(N4CCNC(C)C4)cc3F)cc2o1 (stereo not shown) [Compound 164, 3-fluoro-N-(4-fluoro-2-methyl-1,3-benzoxazol-6-yl)-5-(3-methylpiperazin-1-yl)thiophene-2-carboxamide] | 1000 to 10000 nM | 1000 to 10000 nM
> 10 nM | 1000 to 10000 nM | 100 to 1000 nM | Cc1nc2c(F)cc(NC(=O)c3sc(N4CCNC(C)C4)cc3F)cc2s1 (stereo not shown) [Compound 165, 3-fluoro-N-(4-fluoro-2-methyl-1,3-benzothiazol-6-yl)-5-(3-methylpiperazin-1-yl)thiophene-2-carboxamide] | > 10000 nM | > 10000 nM
> 10 nM | 1000 to 10000 nM | > 10 nM | Cc1cn2cc(NC(=O)c3sc(N4CCNC(C)C4)cc3F)c(C)cc2n1 (stereo not shown) [Compound 166, N-[2,7-dimethylimidazo[1,2-a]pyridin-6-yl]-3-fluoro-5-(3-methylpiperazin-1-yl)thiophene-2-carboxamide] | > 10000 nM | > 10000 nM
> 10 nM | > 10 nM | > 10 nM | Cc1cn2nc(NC(=O)c3sc(N4CCNC(C)C4)cc3F)nc2c(C)n1 (stereo not shown) [Compound 169, hydrochloride] | > 10000 nM | > 10000 nM
100 to 1000 nM | < 100 nM | 1000 to 10000 nM | Cc1cn2cc(NC(=O)c3sc(C4CCNCC4)cc3F)cc(C)c2n1 [Compound 180, N-[2,8-dimethylimidazo[1,2-a]pyridin-6-yl]-3-fluoro-5-(piperidin-4-yl)thiophene-2-carboxamide] | 1000 to 10000 nM | 100 to 1000 nM
> 10 nM | > 10 nM | > 10 nM | Cn1cc2ccc(NC(=O)c3sc(C4CCNCC4)cc3F)cc2n1 [Compound 182, 3-fluoro-N-(2-methylindazol-6-yl)-5-(piperidin-4-yl)thiophene-2-carboxamide] | > 10000 nM | > 10000 nM
> 10 nM | > 10 nM | > 10 nM | Cc1cn2cc(NC(=O)c3cc(Cl)c(N4CCNC(C)C4)s3)cc(F)c2n1 (stereo not shown) [Compound 187] | > 10000 nM | > 10000 nM

Further lines, the compound ahead of its results:

Structure (SMILES) | IC50 (HTT CJ mRNA [2]) | IC50 (SMN2 CJ mRNA) | IC50 (Target C CJ mRNA) | AC50 (HTT AJ mRNA) | AC50 (HTT CJ mRNA [1])
Cc1cn2cc(NC(=O)c3sc(N(C)C4CCN(C)CC4)cc3F)cc(F)c2n1 [Compound 150, 3-fluoro-N-[8-fluoro-2-methylimidazo[1,2-a]pyridin-6-yl]-5-[methyl(1-methylpiperidin-4-yl)amino]thiophene-2-carboxamide] | 1000 to 10000 nM | 1000 to 10000 nM | 1000 to 10000 nM | > 10000 nM | 1000 to 10000 nM
CC1CN(c2cc(F)c(C(=O)Nc3ccc4cn(C)nc4c3)s2)CCN1 (stereo not shown) [Compound 162, 3-fluoro-N-(2-methylindazol-6-yl)-5-(3-methylpiperazin-1-yl)thiophene-2-carboxamide] | > 10 nM | > 10 nM | > 10 nM | > 10000 nM | > 10000 nM
CC1CN(c2cc(F)c(C(=O)Nc3cc(F)c4cn(C)nc4c3)s2)CCN1 (stereo not shown) [Compound 163, 3-fluoro-N-(4-fluoro-2-methylindazol-6-yl)-5-(3-methylpiperazin-1-yl)thiophene-2-carboxamide] | > 10 nM | > 10 nM | < 100 nM | > 10000 nM | > 10000 nM
Cc1cn2cc(NC(=O)c3sc(N4CCNC(C)C4)cc3F)ncc2n1 (stereo not shown) [Compound 167, 3-fluoro-N-[2-methylimidazo[1,2-a]pyrazin-6-yl]-5-(3-methylpiperazin-1-yl)thiophene-2-carboxamide] | > 10 nM | 100 to 1000 nM | > 10 nM | > 10000 nM | > 10000 nM
Cc1cn2cc(NC(=O)c3sc(N4CCNC(C)C4)cc3F)cc(C)c2n1 (stereo not shown) [Compound 172, N-[2,8-dimethylimidazo[1,2-a]pyridin-6-yl]-3-fluoro-5-(3-methylpiperazin-1-yl)thiophene-2-carboxamide] | > 10 nM | 1000 to 10000 nM | > 10 nM | > 10000 nM | > 10000 nM
COc1cc(C2CCNCC2)sc1C(=O)Nc1cc(F)c2nc(C)cn2c1 [Compound 173, N-[8-fluoro-2-methylimidazo [1,2-a]pyridin-6-yl]-3-methoxy-5-(piperidin-4-yl)thiophene-2-carboxamide] | > 10 nM | > 10 nM | > 10 nM | > 10000 nM | > 10000 nM
Cc1cn2cc(NC(=O)c3ccc(C4CCNCC4)s3)cc(F)c2n1 [Compound 174, N-[8-fluoro-2-methylimidazo[1,2-a]pyridin-6-yl]-5-(piperidin-4-yl) thiophene-2-carboxamide] | 100 to 1000 nM | 100 to 1000 nM | 1000 to 10000 nM | 1000 to 10000 nM | 1000 to 10000 nM
Cc1cn2cc(NC(=O)c3sc(C4CCNCC4)cc3F)c(C)cc2n1 [Compound 178, N-[2,7-dimethylimidazo[1,2-a]pyridin-6-yl]-3-fluoro-5-(piperidin-4-yl)thiophene-2-carboxamide] | 1000 to 10000 nM | 100 to 1000 nM | > 10 nM | 1000 to 10000 nM | 1000 to 10000 nM
Cc1cn2cc(NC(=O)c3sc(C4CCNCC4)cc3F)ncc2n1 [Compound 179, 3-fluoro-N-[2-methylimidazo[1,2-a]pyrazin-6-yl]-5-(piperidin-4-yl)thiophene-2-carboxamide] | 100 to 1000 nM | 1000 to 10000 nM | 1000 to 10000 nM | 1000 to 10000 nM | 100 to 1000 nM
Cc1cn2cc(NC(=O)c3sc(C4CCNCC4)cc3F)cc(Cl)c2n1 [Compound 181, N-[8-chloro-2-methylimidazo[1,2-a]pyridin-6-yl]-3-fluoro-5-(piperidin-4-yl)thiophene-2-carboxamide] | 100 to 1000 nM | < 100 nM | 1000 to 10000 nM | 100 to 1000 nM | 100 to 1000 nM
Cn1cc2c(F)cc(NC(=O)c3sc(C4CCNCC4)cc3F)cc2n1 [Compound 183, 3-fluoro-N-(4-fluoro-2-methylindazol-6-yl)-5-(piperidin-4-yl)thiophene-2-carboxamide] | > 10 nM | > 10 nM | > 10 nM | > 10000 nM | > 10000 nM
Cc1nc2c(F)cc(NC(=O)c3sc(C4CCNCC4)cc3F)cc2o1 [Compound 184, 3-fluoro-N-(4-fluoro-2-methyl-1,3-benzoxazol-6-yl)-5-(piperidin-4-yl)thiophene-2-carboxamide] | 100 to 1000 nM | < 100 nM | 100 to 1000 nM | 100 to 1000 nM | 100 to 1000 nM
Cc1nc2c(F)cc(NC(=O)c3sc(C4CCNCC4)cc3F)cc2s1 [Compound 185, 3-fluoro-N-(4-fluoro-2-methyl-1,3-benzothiazol-6-yl)-5-(piperidin-4-yl)-thiophene-2-carboxamide] | 100 to 1000 nM | < 100 nM | 1000 to 10000 nM | 1000 to 10000 nM | 100 to 1000 nM
